Data from ChEMBL document CHEMBL5120795, “Small-Molecule Inhibitors of Tankyrases as Prospective Therapeutics for Cancer” (J Med Chem, 2022).
≈ marks a conversion by molar mass, not a printed value. Blank lines part the entries; values can stand above or below the compound they belong to.

Assays:
[1] = Antitumor activity against human MNNG/HOS cells xenografted in mouse assessed as decrease in tumor growth rate at 5 mg/kg, IT administered every other day for 12 days relative to control; format: functional, HOS-TE85; design: scale not given: the % may be the effect or the level left; settings: time 12 day
[2] = molecular target: T1, Poly [ADP-ribose] polymerase tankyrase-2 (Homo sapiens, UniProt Q9H2K2); assay: Inhibition of TNKS2 (unknown origin)
T1 sequence (Q9H2K2 whole entry): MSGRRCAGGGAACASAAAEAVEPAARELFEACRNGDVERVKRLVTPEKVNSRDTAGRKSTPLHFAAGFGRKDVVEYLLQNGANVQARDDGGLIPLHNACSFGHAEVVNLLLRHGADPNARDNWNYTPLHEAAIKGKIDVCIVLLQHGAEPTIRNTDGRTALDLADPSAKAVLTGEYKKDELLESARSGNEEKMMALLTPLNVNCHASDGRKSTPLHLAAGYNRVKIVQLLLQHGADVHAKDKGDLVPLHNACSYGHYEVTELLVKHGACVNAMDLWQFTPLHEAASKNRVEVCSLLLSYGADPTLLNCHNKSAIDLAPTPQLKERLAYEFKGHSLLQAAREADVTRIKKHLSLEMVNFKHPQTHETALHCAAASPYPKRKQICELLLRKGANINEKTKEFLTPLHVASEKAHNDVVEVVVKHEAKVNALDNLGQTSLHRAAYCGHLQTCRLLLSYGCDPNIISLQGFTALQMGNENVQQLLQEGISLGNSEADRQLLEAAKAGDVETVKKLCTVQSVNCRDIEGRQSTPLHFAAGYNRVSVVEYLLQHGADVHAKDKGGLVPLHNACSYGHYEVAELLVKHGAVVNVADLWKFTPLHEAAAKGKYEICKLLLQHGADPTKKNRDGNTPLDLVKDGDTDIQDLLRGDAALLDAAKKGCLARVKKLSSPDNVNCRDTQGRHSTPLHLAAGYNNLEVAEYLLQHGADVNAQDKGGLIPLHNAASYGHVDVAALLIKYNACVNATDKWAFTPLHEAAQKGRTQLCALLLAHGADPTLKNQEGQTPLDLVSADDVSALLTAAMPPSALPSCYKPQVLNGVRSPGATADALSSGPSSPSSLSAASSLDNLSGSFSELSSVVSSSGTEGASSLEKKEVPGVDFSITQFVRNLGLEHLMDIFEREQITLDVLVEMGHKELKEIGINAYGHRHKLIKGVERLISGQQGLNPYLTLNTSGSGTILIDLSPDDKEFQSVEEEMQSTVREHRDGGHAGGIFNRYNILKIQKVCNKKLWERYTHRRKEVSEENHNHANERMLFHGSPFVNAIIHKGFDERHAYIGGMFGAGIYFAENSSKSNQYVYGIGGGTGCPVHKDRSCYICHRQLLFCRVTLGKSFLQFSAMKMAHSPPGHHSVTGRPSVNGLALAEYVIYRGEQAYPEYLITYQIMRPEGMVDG

[3] = molecular target: T2, Poly [ADP-ribose] polymerase 1 (Homo sapiens, UniProt P09874); assay: Inhibition of PARP1 (unknown origin)
T2 sequence (P09874 whole entry): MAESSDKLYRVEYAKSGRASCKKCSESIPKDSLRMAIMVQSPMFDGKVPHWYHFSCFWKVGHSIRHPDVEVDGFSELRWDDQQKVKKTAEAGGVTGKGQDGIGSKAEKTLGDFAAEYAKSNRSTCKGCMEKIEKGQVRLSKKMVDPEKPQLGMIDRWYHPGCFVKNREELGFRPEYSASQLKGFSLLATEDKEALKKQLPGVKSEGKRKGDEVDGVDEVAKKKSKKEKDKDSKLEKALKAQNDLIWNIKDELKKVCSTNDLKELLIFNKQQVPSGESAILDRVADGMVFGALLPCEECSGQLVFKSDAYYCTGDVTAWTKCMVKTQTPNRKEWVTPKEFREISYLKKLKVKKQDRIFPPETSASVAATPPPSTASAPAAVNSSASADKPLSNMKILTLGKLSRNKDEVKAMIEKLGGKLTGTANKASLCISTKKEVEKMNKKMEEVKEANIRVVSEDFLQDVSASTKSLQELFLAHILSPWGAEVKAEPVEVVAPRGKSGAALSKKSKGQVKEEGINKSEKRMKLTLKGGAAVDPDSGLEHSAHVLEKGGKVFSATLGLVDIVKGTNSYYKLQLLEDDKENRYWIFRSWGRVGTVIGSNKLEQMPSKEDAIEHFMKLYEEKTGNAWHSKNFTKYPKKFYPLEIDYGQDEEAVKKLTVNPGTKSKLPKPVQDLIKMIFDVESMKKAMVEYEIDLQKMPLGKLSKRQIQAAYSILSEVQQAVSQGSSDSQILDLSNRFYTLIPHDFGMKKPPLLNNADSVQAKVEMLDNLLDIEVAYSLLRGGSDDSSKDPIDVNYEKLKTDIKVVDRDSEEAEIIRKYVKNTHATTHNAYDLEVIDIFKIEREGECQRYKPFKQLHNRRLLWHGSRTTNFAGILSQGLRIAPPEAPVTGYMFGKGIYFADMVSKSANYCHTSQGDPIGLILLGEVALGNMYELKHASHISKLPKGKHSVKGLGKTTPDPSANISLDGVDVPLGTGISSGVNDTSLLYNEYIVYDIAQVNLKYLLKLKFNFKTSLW

[4] = molecular target: T3, Poly [ADP-ribose] polymerase tankyrase-1 (Homo sapiens, UniProt O95271); assay: Inhibition of TNKS1 (unknown origin)
T3 sequence (O95271 whole entry): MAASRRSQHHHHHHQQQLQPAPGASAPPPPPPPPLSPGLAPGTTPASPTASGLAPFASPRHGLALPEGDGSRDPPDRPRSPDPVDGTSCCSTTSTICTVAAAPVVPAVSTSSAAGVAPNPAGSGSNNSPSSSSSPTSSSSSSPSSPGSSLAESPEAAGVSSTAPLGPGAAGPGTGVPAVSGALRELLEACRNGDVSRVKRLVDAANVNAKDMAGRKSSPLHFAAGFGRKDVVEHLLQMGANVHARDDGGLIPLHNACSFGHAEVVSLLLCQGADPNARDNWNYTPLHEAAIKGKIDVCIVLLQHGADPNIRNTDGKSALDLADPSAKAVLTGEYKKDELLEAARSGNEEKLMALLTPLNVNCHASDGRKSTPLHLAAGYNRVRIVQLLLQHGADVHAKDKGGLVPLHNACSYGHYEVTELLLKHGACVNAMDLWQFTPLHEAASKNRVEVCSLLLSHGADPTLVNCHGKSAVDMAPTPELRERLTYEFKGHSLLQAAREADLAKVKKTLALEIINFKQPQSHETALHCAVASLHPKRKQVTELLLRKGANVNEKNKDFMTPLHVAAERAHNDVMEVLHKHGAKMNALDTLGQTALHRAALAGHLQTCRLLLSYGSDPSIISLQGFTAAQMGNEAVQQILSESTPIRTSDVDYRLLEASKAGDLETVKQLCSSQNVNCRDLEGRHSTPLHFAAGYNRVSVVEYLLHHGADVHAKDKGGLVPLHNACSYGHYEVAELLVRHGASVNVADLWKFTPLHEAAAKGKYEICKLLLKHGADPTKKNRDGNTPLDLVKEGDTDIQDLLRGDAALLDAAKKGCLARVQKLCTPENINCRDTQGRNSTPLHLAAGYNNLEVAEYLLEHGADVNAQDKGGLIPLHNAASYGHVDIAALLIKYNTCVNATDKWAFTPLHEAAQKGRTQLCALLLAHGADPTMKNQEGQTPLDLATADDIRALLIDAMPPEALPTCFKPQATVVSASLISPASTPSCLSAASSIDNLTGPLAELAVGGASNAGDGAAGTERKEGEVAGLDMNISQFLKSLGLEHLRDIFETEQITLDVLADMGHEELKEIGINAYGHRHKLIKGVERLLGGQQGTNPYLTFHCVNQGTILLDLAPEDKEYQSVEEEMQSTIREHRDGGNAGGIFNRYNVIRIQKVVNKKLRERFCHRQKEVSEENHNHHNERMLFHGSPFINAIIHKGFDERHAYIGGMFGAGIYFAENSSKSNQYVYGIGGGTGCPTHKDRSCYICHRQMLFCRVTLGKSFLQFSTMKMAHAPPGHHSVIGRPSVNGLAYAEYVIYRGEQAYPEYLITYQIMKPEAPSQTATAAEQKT

[5] = molecular target: T1, Poly [ADP-ribose] polymerase tankyrase-2; assay: Binding affinity to ARC4 domain at TNKS2 (unknown origin) assessed as dissociation constant
[6] = Disruption of ARC5 domain of TNKS1 (unknown origin)/USP25 (unknown origin) protein interaction assessed as inhibition constant; design: species or system Homo sapiens
[7] = molecular target: T2, Poly [ADP-ribose] polymerase 1; assay: Inhibition of PARP1 (unknown origin) at 1 uM relative to control
[8] = molecular target: T4, Poly [ADP-ribose] polymerase tankyrase-1 (Homo sapiens) (UniProt O95271); assay: Inhibition of TNKS1 (unknown origin) at 1 uM relative to control
T4 sequence (whole entry): T3 sequence (O95271 whole entry)

[9] = molecular target: T5, Poly [ADP-ribose] polymerase 2 (Homo sapiens, UniProt Q9UGN5); assay: Inhibition of PARP2 (unknown origin) at 1 uM relative to control
T5 sequence (Q9UGN5 whole entry): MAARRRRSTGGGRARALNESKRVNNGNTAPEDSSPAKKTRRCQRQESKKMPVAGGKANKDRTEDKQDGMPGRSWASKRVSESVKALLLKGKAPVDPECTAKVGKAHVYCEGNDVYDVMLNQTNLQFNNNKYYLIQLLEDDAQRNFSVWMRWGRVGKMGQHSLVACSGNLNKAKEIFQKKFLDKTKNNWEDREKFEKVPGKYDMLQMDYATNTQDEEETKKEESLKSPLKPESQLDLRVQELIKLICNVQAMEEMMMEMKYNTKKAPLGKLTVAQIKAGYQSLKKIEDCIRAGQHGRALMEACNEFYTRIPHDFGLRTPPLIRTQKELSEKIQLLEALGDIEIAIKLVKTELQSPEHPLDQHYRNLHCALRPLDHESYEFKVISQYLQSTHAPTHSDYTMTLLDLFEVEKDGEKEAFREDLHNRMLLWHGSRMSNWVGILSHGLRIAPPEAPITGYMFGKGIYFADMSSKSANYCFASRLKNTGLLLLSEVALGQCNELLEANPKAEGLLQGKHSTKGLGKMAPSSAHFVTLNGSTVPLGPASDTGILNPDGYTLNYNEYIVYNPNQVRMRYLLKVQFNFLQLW

[10] = molecular target: T6, Poly [ADP-ribose] polymerase tankyrase-2 (Homo sapiens) (UniProt Q9H2K2); assay: Inhibition of TNKS2 (unknown origin) at 1 uM relative to control
T6 sequence (whole entry): T1 sequence (Q9H2K2 whole entry)

[11] = test system: SW480; assay: Antitumor activity against human SW480 cells xenografted in mouse assessed as reduction in tumor size at 300 mg/kg, IP relative to control; format: functional; design: scale not given: the % may be the effect or the level left
[12] = test system: SW480; assay: Antitumor activity against human SW480 cells xenografted in mouse assessed as reduction in tumor size at 150 mg/kg, IP relative to control; format: functional; design: scale not given: the % may be the effect or the level left
[13] = Toxicity in mouse xenografted with COLO 320DM cells assessed as reduction in body weight at 30 mg/kg, ip daily relative to control; format: organism-based; design: scale not given: the % may be the effect or the level left; settings: in vivo
[14] = Toxicity in mouse xenografted with COLO 320DM cells assessed as reduction in body weight at 60 mg/kg, po daily relative to control; format: organism-based; design: scale not given: the % may be the effect or the level left; settings: in vivo
[15] = physchem; settings: aqueous, pH 7.4
[16] = Stability in mouse liver microsomes assessed as compound remaining measured after 30 mins relative to control; format: ADME, Microsome; settings: read-out: Stability
[17] = molecular target: T5, Poly [ADP-ribose] polymerase 2; assay: Inhibition of PAPR2 (unknown origin)
[18] = Oral bioavailability in mouse relative to control; format: ADME, organism-based; settings: in vivo

- IC50 [2]: 1900 nM
- IC50 [3]: 1800 nM
Structure (SMILES): COc1ccc(C2(CNC(=O)c3ccc(NC(=O)c4ccco4)cc3)CCOCC2)cc1

- Ki [6]: 20500 nM
Structure (SMILES): CCc1ccc(OCC(=O)Nc2sc(C)c(C)c2C(N)=O)c(F)c1

- inhibition [7]: 0%
- inhibition [8]: 100%
- inhibition [9]: 0%
- inhibition [10]: 100%
Structure (SMILES): COc1cc2ncnc(N3CCC(CN4Cc5ccccc5N(c5ccc(F)c(C#N)c5)C4=O)CC3)c2cc1OC

- IC50 [17]: > 10000 nM
- IC50 [3]: > 10000 nM
Structure (SMILES): Cc1cc(NCCc2ccc(O)cc2)c2nncn2n1

- bioavailability [18]: 100%
Structure (SMILES): C[C@@H]1CN(c2cc(F)c3c(c2)N(C)C(=O)C32CCN(c3nc4c(c(=O)[nH]3)CCCN4C)CC2)C[C@H](C)O1

The next lines start with the compound.

Structure (SMILES): O=C(Nc1cccc2cccnc12)c1ccc(N2C(=O)[C@@H]3[C@H](C2=O)[C@@H]2C=C[C@H]3C2)cc1
- Activity [1]: 73%

Structure (SMILES): O=C(Nc1cccc2c(=O)[nH]ccc12)[C@H]1CCCNC1
- IC50 [4]: 9 nM
- IC50 [2]: 3 nM
- IC50 [3]: > 10000 nM

Structure (SMILES): CC(=O)N[C@@H](CCCNC(=N)N)C(=O)N[C@@H](CCC(=O)O)C(=O)N[C@H]1CCn2cc(nn2)-c2cc(C(=O)O)cc(c2)-c2cn(nn2)CC[C@@H](C(=O)N[C@@H](CCC(=O)O)C(N)=O)NC(=O)CNC(=O)[C@H](CC(=O)O)NC(=O)CNC1=O
- Kd [5]: 440 nM

Structure (SMILES): CC(=O)N[C@@H](CCCNC(=N)N)C(=O)N[C@@H](CCC(=O)O)C(=O)N[C@H]1CCn2cc(nn2)CCCc2cn(nn2)CC[C@@H](C(=O)N[C@@H](CCC(=O)O)C(N)=O)NC(=O)CNC(=O)[C@H](CC(=O)O)NC(=O)CNC1=O
- Kd [5]: 600 nM

Structure (SMILES): COc1ccc(-n2c(SCc3nc(-c4ccc(C)cc4)no3)nnc2-c2ccncc2)cc1
- Activity [11]: 35%
- Activity [12]: 33%

Structure (SMILES): CS(=O)(=O)c1ccc(-c2nnc(/C=C/c3nnc(-c4ccc(C#N)cc4)o3)n2-c2ccccc2Cl)nc1
- Activity [13]: > 15%
- Activity [14]: > 15%

Structure (SMILES): COc1ccccc1N1CCN(c2nc3c(c(=O)[nH]2)CCCC3)CC1
- solubility [15]: 10 µg/mL (≈ 29.4 µM)
- remaining at 0.5 h [16]: 0%
- IC50 [3]: > 100000 nM

Structure (SMILES): COc1ccc(-n2c(SCCCN3C(=O)c4cccc5cccc(c45)C3=O)nnc2-c2ccncc2)cc1
- IC50 [2]: 15 nM
